Test results from patent publication US20230085307A1, “PYRIDAZINONE COMPOUND AND HERBICIDE” (NISSAN CHEMICAL CORPORATION, priority 2019, published 2023).

Key:
[1] = test system: Japanese bulrush; experiment: Test Example 1: herbicidal activity, application before weed generation under submerged conditions (Table 16, symbol B); type: in vivo, Japanese bulrush (Schoenoplectus juncoides); settings: amount of applied herbicide 320 g/ha
In short: (§1)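 Emulsion formulation, water-diluted to set dose, was put onto the flooded surface (4 cm depth, alluvial soil) the same day weeds were sown and 2.5-leaf rice transplanted. After 3 weeks at 25-30 °C under glass, each species was rated 0 (≤5% kill) to 5 (≥90% kill).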

[2] = test system: oval-leafed pondweed; experiment: Test Example 1: herbicidal activity, application before weed generation under submerged conditions (Table 16, symbol C); type: in vivo, oval-leafed pondweed (Monochoria vaginalis); settings: amount of applied herbicide 320 g/ha
In short: as §1

[3] = test system: late watergrass; experiment: Test Example 2: herbicidal activity, application during weed generation under submerged conditions (Table 17, symbol A); type: in vivo, late watergrass (Echinochloa oryzicola); settings: for herbicidal effect rating, A: late watergrass: AAH 320 g/ha, application during weed generation, submerged conditions
In short: (§2)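 In this pot test, flooded alluvial soil (water depth 4 cm) holds all three species sown as a mixture. Once seedlings have one to two leaves, the compound's emulsion, thinned with water to the intended dose, is poured on the water; grading follows after three weeks on the earlier criteria.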

[4] = test system: Japanese bulrush; experiment: Test Example 2: herbicidal activity, application during weed generation under submerged conditions (Table 17, symbol B); type: in vivo, Japanese bulrush (Schoenoplectus juncoides); settings: for herbicidal effect rating, B: Japanese bulrush: AAH 320 g/ha, application during weed generation, submerged conditions
In short: as §2

[5] = test system: barnyard grass; experiment: Test Example 3: herbicidal effect by foliage application, Wagner pot (Table 18, symbol H); type: in vivo, barnyard grass (Echinochloa crus-galli); settings: for herbicidal effect on barnyard grass (H): 320 g/ha
In short: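 Plants were sown in alluvial soil held under 0.1–0.5 cm standing water and grown 14 days in a greenhouse at 25–30 °C. An emulsifiable formulation, water-diluted to the set dose, was then sprayed onto the foliage, and effects were scored three weeks later using previously defined criteria.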

[6] = test system: southern crabgrass; experiment: Test Example 4: herbicidal effect by soil treatment (Table 19, symbol F); type: in vivo, southern crabgrass (Digitaria ciliaris); settings: amount of applied herbicide 320 g/ha
In short: (§3)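 Pre-emergence style soil spray: seeds under ~1.5 cm sterilized diluvial soil received a uniform coat of emulsion diluted to the predetermined herbicide amount. Greenhouse 25–30° C; readout at week three on previously defined criteria.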

[7] = test system: barnyard grass; experiment: Test Example 4: herbicidal effect by soil treatment (Table 19, symbol H); type: in vivo, barnyard grass (Echinochloa crus-galli); settings: amount of applied herbicide 320 g/ha
In short: as §3

[8] = test system: blackgrass; experiment: Test Example 4: herbicidal effect by soil treatment (Table 19, symbol J); type: in vivo, blackgrass (Alopecurus myosuroides); settings: amount of applied herbicide 320 g/ha
In short: as §3

[9] = test system: redroot pigweed; experiment: Test Example 4: herbicidal effect by soil treatment (Table 19, symbol N); type: in vivo, redroot pigweed (Amaranthus retroflexus); settings: amount of applied herbicide 320 g/ha
In short: as §3

[10] = test system: chickweed; experiment: Test Example 4: herbicidal effect by soil treatment (Table 19, symbol P); type: in vivo, common chickweed (Stellaria media); settings: amount of applied herbicide 320 g/ha
In short: as §3

[11] = test system: southern crabgrass; experiment: Test Example 5: herbicidal effect by foliage application, plastic box (Table 20, symbol F); type: in vivo, southern crabgrass (Digitaria ciliaris); settings: 320 g/ha; for herbicidal effect on F: southern crabgrass (evaluation grade 0-5): foliage application after 14-day growth, evaluated three weeks after application
In short: (§4)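 Plants were sown into sterilized diluvial soil under about 1.5 cm cover and kept in a greenhouse at 25° C. to 30° C. Fourteen days on, foliage received an even spray of the diluted emulsion. Herbicidal or crop effect was judged three weeks afterwards.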

[12] = test system: green foxtail; experiment: Test Example 5: herbicidal effect by foliage application, plastic box (Table 20, symbol G); type: in vivo, green foxtail (Setaria viridis); settings: 320 g/ha; for herbicidal effect on G: green foxtail (evaluation grade 0-5): foliage application after 14-day growth, evaluated three weeks after application
In short: as §4

[13] = test system: wild oat; experiment: Test Example 5: herbicidal effect by foliage application, plastic box (Table 20, symbol I); type: in vivo, wild oat (Avena fatua); settings: 320 g/ha; for herbicidal effect on I: wild oat (evaluation grade 0-5): foliage application after 14-day growth, evaluated three weeks after application
In short: as §4

[14] = test system: blackgrass; experiment: Test Example 5: herbicidal effect by foliage application, plastic box (Table 20, symbol J); type: in vivo, blackgrass (Alopecurus myosuroides); settings: 320 g/ha; for herbicidal effect on J: blackgrass (evaluation grade 0-5): foliage application after 14-day growth, evaluated three weeks after application
In short: as §4

[15] = test system: redroot pigweed; experiment: Test Example 5: herbicidal effect by foliage application, plastic box (Table 20, symbol N); type: in vivo, redroot pigweed (Amaranthus retroflexus); settings: 320 g/ha; for herbicidal effect on N: redroot pigweed (evaluation grade 0-5): foliage application after 14-day growth, evaluated three weeks after application
In short: as §4

[16] = test system: lambsquarters; experiment: Test Example 5: herbicidal effect by foliage application, plastic box (Table 20, symbol O); type: in vivo, lambsquarters (Chenopodium album); settings: 320 g/ha; for herbicidal effect on O: lambsquarters (evaluation grade 0-5): foliage application after 14-day growth, evaluated three weeks after application
In short: as §4

[17] = test system: persian speedwell; experiment: Test Example 5: herbicidal effect by foliage application, plastic box (Table 20, symbol R); type: in vivo, Persian speedwell (Veronica persica); settings: 320 g/ha; for herbicidal effect on R: persian speedwell (evaluation grade 0-5): foliage application after 14-day growth, evaluated three weeks after application
In short: as §4

[18] = application during weed generation under submerged conditions, amount of applied herbicide 320 g/ha
[19] = foliage application, evaluated 3 weeks after application
[20] = foliage application, three weeks after application

SMILES | Herbicidal effect, B: Japanese bulrush [1] | Herbicidal effect, C: oval-leafed pondweed [2] | herbicidal effect rating, A: late watergrass [3] | herbicidal effect rating, B: Japanese bulrush [4] | herbicidal effect on barnyard grass (H) [5] | Herbicidal effect by soil treatment, F: southern crabgrass [6] | Herbicidal effect by soil treatment, H: barnyard grass [7] | Herbicidal effect by soil treatment, J: blackgrass [8] | Herbicidal effect by soil treatment, N: redroot pigweed [9] | Herbicidal effect by soil treatment, P: chickweed [10] | herbicidal effect on F: southern crabgrass (evaluation grade 0-5) [11] | herbicidal effect on G: green foxtail (evaluation grade 0-5) [12] | herbicidal effect on I: wild oat (evaluation grade 0-5) [13] | herbicidal effect on J: blackgrass (evaluation grade 0-5) [14] | herbicidal effect on N: redroot pigweed (evaluation grade 0-5) [15] | herbicidal effect on O: lambsquarters (evaluation grade 0-5) [16] | herbicidal effect on R: persian speedwell (evaluation grade 0-5) [17] | F: southern crabgrass, herbicidal effect grade [6] | H: barnyard grass, herbicidal effect grade [7] | J: blackgrass, herbicidal effect grade [8] | also measured
COc1ccc2c(-c3c(OC(=O)C4CCCCC4)c(C)nn(C)c3=O)c(-c3ccccc3OC)sc2c1 [3-156] | 4 (Herbicidal rate of 70% or more and less than 90%) | 4 (Herbicidal rate of 70% or more and less than 90%) | 3 (Herbicidal rate of 40% or more and less than 70%) | 4 (Herbicidal rate of 70% or more and less than 90%) | 5 (Herbicidal rate of 90% or more (almost completely withered)) | 0 (Herbicidal rate of 5% or less (almost no effect)) | 0 (Herbicidal rate of 5% or less (almost no effect)) | 0 (Herbicidal rate of 5% or less (almost no effect)) | 0 (Herbicidal rate of 5% or less (almost no effect)) | 3 (Herbicidal rate of 40% or more and less than 70%) | 5 (Herbicidal rate of 90% or more (almost completely withered)) | 5 (Herbicidal rate of 90% or more (almost completely withered)) | 4 (Herbicidal rate of 70% or more and less than 90%) | 4 (Herbicidal rate of 70% or more and less than 90%) | 5 (Herbicidal rate of 90% or more (almost completely withered)) | 4 (Herbicidal rate of 70% or more and less than 90%) | 5 (Herbicidal rate of 90% or more (almost completely withered)) |  |  |  | 
CCSc1ccc(-c2oc3ccc(C)cc3c2-c2c(O)c(C)nn(C)c2=O)cc1 [9-057] | 4 (Herbicidal rate of 70% or more and less than 90%) | 4 (Herbicidal rate of 70% or more and less than 90%) |  |  |  |  |  |  |  |  |  |  |  |  |  |  |  | 5 (Herbicidal rate of 90% or more (almost completely withered)) | 3 (Herbicidal rate of 40% or more and less than 70%) | 0 (Herbicidal rate of 5% or less (almost no effect)) | herbicidal effect grade, A: late watergrass [3, 18]: 5 (Herbicidal rate of 90% or more (almost completely withered)); herbicidal effect grade, B: Japanese bulrush [4, 18]: 3 (Herbicidal rate of 40% or more and less than 70%); Herbicidal effect on H (barnyard grass), foliage application ([5]; amount of applied herbicide 320 g/ha): 5 (Herbicidal rate of 90% or more (almost completely withered)); N: redroot pigweed, herbicidal effect grade [9]: 5 (Herbicidal rate of 90% or more (almost completely withered)); P: chickweed, herbicidal effect grade [10]: 5 (Herbicidal rate of 90% or more (almost completely withered)); F (southern crabgrass) herbicidal effect grade [11, 19]: 5 (Herbicidal rate of 90% or more (almost completely withered)); G (green foxtail) herbicidal effect grade [12, 19]: 5 (Herbicidal rate of 90% or more (almost completely withered)); I (wild oat) herbicidal effect grade [13, 19]: 3 (Herbicidal rate of 40% or more and less than 70%); J (blackgrass) herbicidal effect grade [14, 19]: 5 (Herbicidal rate of 90% or more (almost completely withered)); N (redroot pigweed) herbicidal effect grade [15, 19]: 5 (Herbicidal rate of 90% or more (almost completely withered)); O (lambsquarters) herbicidal effect grade [16, 19]: 5 (Herbicidal rate of 90% or more (almost completely withered)); R (persian speedwell) herbicidal effect grade [17, 19]: 5 (Herbicidal rate of 90% or more (almost completely withered))
CCCC(=O)Oc1c(C)nn(C)c(=O)c1-c1c(-c2ccc(OC)cc2)sc2c(Cl)cccc12 [4-024] | 2 (Herbicidal rate of 20% or more and less than 40%) | 3 (Herbicidal rate of 40% or more and less than 70%) | 3 (Herbicidal rate of 40% or more and less than 70%) | 0 (Herbicidal rate of 5% or less (almost no effect)) | 4 (Herbicidal rate of 70% or more and less than 90%) | 0 (Herbicidal rate of 5% or less (almost no effect)) | 0 (Herbicidal rate of 5% or less (almost no effect)) | 0 (Herbicidal rate of 5% or less (almost no effect)) | 3 (Herbicidal rate of 40% or more and less than 70%) | 0 (Herbicidal rate of 5% or less (almost no effect)) | 1 (Herbicidal rate of 5% or more and less than 20%) | 4 (Herbicidal rate of 70% or more and less than 90%) | 0 (Herbicidal rate of 5% or less (almost no effect)) | 0 (Herbicidal rate of 5% or less (almost no effect)) | 5 (Herbicidal rate of 90% or more (almost completely withered)) | 3 (Herbicidal rate of 40% or more and less than 70%) | 4 (Herbicidal rate of 70% or more and less than 90%) |  |  |  | 
COc1ccccc1-c1sc2cc(OCC3CC3(F)F)ccc2c1-c1c(O)c(C)nn(C)c1=O (centres unmarked) [3-131] | 5 (Herbicidal rate of 90% or more (almost completely withered)) | 5 (Herbicidal rate of 90% or more (almost completely withered)) | 5 (Herbicidal rate of 90% or more (almost completely withered)) | 3 (Herbicidal rate of 40% or more and less than 70%) | 5 (Herbicidal rate of 90% or more (almost completely withered)) |  |  |  |  |  |  |  |  |  |  |  |  | 3 (Herbicidal rate of 40% or more and less than 70%) | 2 (Herbicidal rate of 20% or more and less than 40%) | 4 (Herbicidal rate of 70% or more and less than 90%) | N: redroot pigweed, herbicidal effect grade [9]: 5 (Herbicidal rate of 90% or more (almost completely withered)); P: chickweed, herbicidal effect grade [10]: 4 (Herbicidal rate of 70% or more and less than 90%); F: southern crabgrass, herbicidal effect grade [11, 20]: 5 (Herbicidal rate of 90% or more (almost completely withered)); G: green foxtail, herbicidal effect grade [12, 20]: 5 (Herbicidal rate of 90% or more (almost completely withered)); I: wild oat, herbicidal effect grade [13, 20]: 5 (Herbicidal rate of 90% or more (almost completely withered)); J: blackgrass, herbicidal effect grade [14, 20]: 5 (Herbicidal rate of 90% or more (almost completely withered)); N: redroot pigweed, herbicidal effect grade [15, 20]: 5 (Herbicidal rate of 90% or more (almost completely withered)); O: lambsquarters, herbicidal effect grade [16, 20]: 5 (Herbicidal rate of 90% or more (almost completely withered)); R: persian speedwell, herbicidal effect grade [17, 20]: 5 (Herbicidal rate of 90% or more (almost completely withered))
